The source of these data is PubChem BioAssay (NCI).

Common to all, as to assay: growth of human tumour cells (NCI), 48 h
Assay [1] deals with A498 renal.
Assay [2] has as its system PC-3 prostate.
Assay [3] deals with SK-OV-3 ovarian.
Assay [4] has as its system M14 melanoma.
In assay [5] the test system is SK-MEL-5 melanoma.
Assay [6] concerns SN12C renal.
Assay [7] concerns LOX IMVI melanoma.
The subject of assay [8] is EKVX NSCLC.
In assay [9] the test system is HS 578T breast.
Assay [10] has as its system MOLT-4 leukemia.
In assay [11] the test system is SNB-75 CNS.
Assay [12] deals with CCRF-CEM leukemia.
The test system of assay [13] is HOP-62 NSCLC.
Assay [14] relates to NCI-H522 lung.
The test system of assay [15] is NCI-H23 lung.
Assay [16] has as its system UO-31 renal.
Assay [17] deals with MALME-3M melanoma.
Assay [18] has as its system SR leukemia.

SMILES strings stand for the structures. Several values for one entry are separate records, joined by “and”; a condition that tells them apart may be missing. Equal values may be shown once.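 48-hour exposure; five concentrations; linearly interpolated endpoints. Abbreviation: GI50, concentration required for 50% inhibition of growth. Definition used: TGI = concentration required for complete inhibition of growth.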 Where a SMILES comes first, the peptide text is derived from it. The star is where a group is joined. Boc = CC(C)(C)OC(=O)*; OBn = c1ccc(CO*)cc1

In the case of `CC(=O)O[C@@H]1CC[C@@]2(C)C(CC[C@H]3[C@@H]4CC[C@H]([C@H](C)CCc5nc6ccc(C)cc6[nH]5)[C@@]4(C)CC[C@@H]32)C1` (stereo partly drawn), the TGI in [1], in assay [2], in assay [3], in assay [4], in assay [5] and in [6] was over 100 µM in each case. Also, the TGI in assay [7] is over 100 µM; in assay [8] it was 53.3 µM; in assay [9], over 100 µM; in assay [10], over 100 µM; in assay [11], 24.1 µM; in [12] it was 8.47 µM. The TGI in assay [13], in assay [14], in assay [15] and in assay [16] was over 100 µM throughout.

On to `COc1ccc([N+](=O)[O-])c2c(NCCCN(C)C)c3ccccc3nc12`, for which the TGI in [1] amounted to 0.0733 µM; in assay [2], 0.372 µM; in assay [3] it was 2.38 µM; in assay [4], 0.572 µM; in assay [5] it was 0.243 µM; in [6] it was 1.43 µM. Also, the TGI is 5.11 µM in [7]; 0.557 µM in [8]; 4.29 µM in [9]; 1.39 µM in assay [10]; 0.802 µM in assay [11]; over 100 µM in assay [12]. The TGI is 0.399 µM in assay [13]; 0.145 µM in [14]; 0.336 µM in [17]; 0.402 µM in [15]; 1.15 µM in assay [16].

For `CC(=O)C(I(OS(=O)(=O)c1ccc(C)cc1)c1ccccc1)=P(c1ccccc1)(c1ccccc1)c1ccccc1`, the TGI in assay [1] is over 100 µM; in assay [2], over 100 µM; in assay [3] it was over 100 µM; in assay [4], 59.3 µM; in assay [5] it was 63.3 µM; in [6] it was 69.2 µM. The TGI in assay [8] was 70.8 µM; in assay [9] it was 68.8 µM; in assay [10] it was over 100 µM; in [12], 78.3 µM; in assay [13], 59.6 µM; in [14], 24.5 µM. For the same compound, the TGI in assay [17] is 30 µM; in assay [15] it was 42.7 µM; in assay [16] it was over 100 µM.

`CC(C)(C)O/C=C1/C(=O)OC2C[C@@H](O[Si](C)(C)C(C)(C)C)CC12` (stereo partly drawn): the TGI in assay [1], in assay [2], in assay [3], in assay [4], in [5] and in [6] was over 100 µM in each case. In addition, the TGI in [7] is over 100 µM; in [8], over 100 µM; in assay [11], 93.3 µM; in assay [12], 88.4 µM; in [13], over 100 µM; in assay [14], 87.4 µM. For the same compound, the TGI in [17], in assay [15] and in assay [16] was over 100 µM throughout.

Take `COC(=O)C(C)NP(=O)(N1CC1)N1CC1` (stereo not drawn): the TGI in assay [1], in assay [3], in assay [4], in assay [5], in assay [6] and in assay [7] was over 100 µM each time. In addition, the TGI in [8], in [10], in [11], in [12], in [14] and in assay [17] was over 100 µM each time. Moreover, the TGI in assay [15] and in [16] was over 100 µM throughout.

For the compound `CCOC(=O)CCC(NC(=O)c1ccc(CNc2nc3ccccc3nc2C(=O)OCC)cc1)C(=O)OCC` (stereo not drawn), the TGI in assay [1], in [2], in [3], in assay [4], in assay [5] and in assay [6] was over 100 µM each time. Also, the TGI in assay [7], in [8], in [9], in [10], in assay [11] and in [12] was over 100 µM each time. Further, the TGI in assay [13], in assay [14], in [17], in assay [15] and in assay [16] was over 100 µM throughout.

In the case of `CC(=O)Oc1cc2c(n(C)c1=O)-c1ccccc1C2`, the TGI in assay [1], in assay [2], in assay [3], in [4], in [5] and in [6] was over 100 µM in each case. Also, the TGI in assay [7], in assay [9], in assay [10], in assay [11], in assay [12] and in [13] was over 100 µM throughout. In addition, the TGI in [14] is 30.7 µM; in assay [17], over 100 µM; in assay [15], over 100 µM; in assay [16], over 100 µM.

For the compound `COC1CC(C)C(OC)C2=CC(=O)C=C(NC(=O)/C(C)=C/C=C\C(C)C(OC(N)=O)/C(C)=C\C(C)C1OC)C2=O` (stereo not drawn), the TGI in assay [1] amounted to 24.2 µM; in [2] it was 23.6 µM; in assay [3], 2.81 µM; in assay [4], 12.2 µM; in [5] it was 15 µM; in assay [6], 5.48 µM. Also, the TGI in assay [7] stood at 3.66 µM; in assay [8], 23.1 µM; in assay [10], 1.04 µM; in assay [11], 16.1 µM; in assay [12], 1.05 µM; in assay [13], 10.5 µM. Also, the TGI in [18] was determined as 0.729 µM; in assay [14], 0.728 µM; in [17], 12 µM; in assay [15], 13.8 µM; in assay [16], 10.8 µM. Further, the GI50 in assay [12] is 0.0706 µM; in assay [14], 0.0592 µM.

In the case of `CCN(CC)CCC(=O)NC1c2ccc(Cl)cc2Oc2c(C)cccc21` (stereo not drawn), the TGI in assay [2] amounted to 26.7 µM; in assay [3] it was 31.8 µM; in [4], 31.3 µM; in assay [5] it was 26.1 µM; in assay [6] it was 35.5 µM; in assay [7] it was 29.1 µM. Moreover, the TGI in assay [8] is 36.9 µM; in assay [10], 38.7 µM; in [11], 22.5 µM; in assay [12] it was 37 µM; in [18] it was 39.1 µM; in assay [14], 31.6 µM. Also, the TGI in assay [15] amounted to 31.5 µM; in assay [16], 21.5 µM.

For `COc1ccc(Nc2nnc(CCCCCCCCc3nnc(Nc4ccc(OC)cc4)o3)o2)cc1`, the TGI in [1], in assay [2], in assay [3], in [4], in [5] and in [6] was over 100 µM each time. The TGI in assay [7], in assay [8], in [10], in assay [11], in assay [12] and in assay [13] was over 100 µM in each case. Also, the TGI in assay [14], in assay [17], in assay [15] and in assay [16] was over 100 µM throughout.

`COC(=O)Nc1nc2ccc(S(=O)(=O)NC(CC(C)C)C(=O)OC)cc2[nH]1` (stereo not drawn): the TGI in assay [1] was 28 µM; in assay [2] it was over 100 µM; in assay [3], over 100 µM; in assay [5], 4.21 µM; in [6], over 100 µM; in assay [7], over 100 µM. The TGI is 89.8 µM in assay [8]; 3.47 µM in assay [9]; 29.2 µM in assay [10]; 8.16 µM in assay [11]; over 100 µM in assay [12]; over 100 µM in [13]. The TGI is 0.888 µM in [14], 41.2 µM in [17], over 100 µM in assay [15] and over 100 µM in [16].

For the compound `COc1cccc(OC/C(N=Cc2cccnc2)=N/NC(=O)c2ccncc2)c1`, the TGI in assay [1], in assay [2], in assay [3], in assay [4], in assay [7] and in assay [8] was over 100 µM each time. In addition, the TGI in assay [9], in assay [10], in assay [11], in assay [12], in [13] and in [14] was over 100 µM each time. Moreover, the TGI in assay [17] and in assay [15] was over 100 µM each time.

As for `OC(CCN1CCCCC1)(c1ccccc1)c1ccccc1`, the TGI in [1], in assay [2], in [3], in [4], in assay [5] and in [6] was over 100 µM in each case. Besides, the TGI in assay [7], in [8], in assay [10], in [12], in assay [13] and in assay [14] was over 100 µM each time. For the same compound, the TGI in assay [17], in [15] and in [16] was over 100 µM in each case.

For the compound `N#CC(C#N)N=Cc1ccncc1`, the TGI in assay [1], in assay [2], in assay [3], in [4], in [5] and in assay [6] was over 100 µM each time. The TGI in assay [7], in [8], in assay [10], in assay [11], in [12] and in assay [13] was over 100 µM each time. For the same compound, the TGI in [17] and in assay [15] was over 100 µM each time.

For the compound `O=C(O)c1ccc(P(=O)(O)c2ccc(C(=O)O)cc2Br)c(Br)c1`, the TGI in assay [2], in [3], in assay [4], in assay [5], in [6] and in [7] was over 100 µM in each case. Moreover, the TGI in assay [8], in assay [9], in assay [10], in assay [11], in assay [13] and in assay [14] was over 100 µM throughout. For the same compound, the TGI in assay [15] and in assay [16] was over 100 µM throughout.

As for `COc1ccc([N+]2=NC(c3ccc([N+](=O)[O-])cc3)=NN(c3ccccc3)C2)cc1`, the TGI in assay [1] is over 100 µM; in assay [5], 61.5 µM and 83.9 µM; in assay [6], over 100 µM; in assay [7], over 100 µM; in assay [8] it was over 100 µM; in [10], 74.4 µM and > 100 µM. The TGI in [12] is 92.8 µM and 52.1 µM; in [13], over 100 µM; in [18] it was over 100 µM; in assay [14], 5.87 µM and 10.5 µM; in [17], over 100 µM; in assay [15] it was over 100 µM. Moreover, the TGI in assay [16] is over 100 µM.

For the compound `CC(C)C(NC(=O)C(Cc1ccccc1)NC(=O)OC(C)(C)C)C(=O)NCC(=O)OCc1ccccc1` (stereo not drawn) (Boc-Phe-Val-Gly-OBn; configuration not given here), the TGI in assay [1] is over 100 µM; in assay [2], 29.5 µM; in assay [3], 28 µM; in assay [4], 36.5 µM; in assay [6] it was 34.5 µM; in [7], 30.2 µM. Besides, the TGI worked out at 37.9 µM in assay [8]; 39.7 µM in assay [10]; 36 µM in assay [11]; 43 µM in [12]; 35.6 µM in assay [13]; 20.1 µM in assay [14]. In addition, the TGI in assay [17] was found to be 37.5 µM; in [15], 36.1 µM; in [16], 51.6 µM.

For the compound `COc1c2nc(CCl)[nH]c(=O)c2c(OC)c2nc(CCl)[nH]c(=O)c12`, the TGI in assay [3], in assay [4], in assay [5], in assay [6], in assay [7] and in assay [10] was over 100 µM throughout. For the same compound, the TGI in [11], in [12], in [13], in assay [14], in assay [17] and in [15] was over 100 µM in each case. In assay [16], this compound registered a TGI of over 100 µM.
